Experimental data: the CheMixHub viscosity set
Values joined by “and” are separate entries in the source; they are usually repeats but may differ in a detail not shown here. Equal entries are not always repeated.

Assay: xn = mol fraction of the nth substance listed

C1C[C@@H]2[C@H]3CC[C@H](C3)[C@@H]2C1 + CCCCCCCCCC
viscosity
Conditions | 293.15 K | 298.15 K | 303.15 K | 308.15 K | 313.15 K | 318.15 K | 323.15 K
100 kPa, x1 = 0.1005 | 0.989 mPa·s and 0.992 mPa·s | 0.921 mPa·s | 0.855 mPa·s and 0.858 mPa·s | 0.8 mPa·s and 0.803 mPa·s | 0.75 mPa·s and 0.754 mPa·s | 0.706 mPa·s and 0.709 mPa·s | 0.666 mPa·s and 0.669 mPa·s
100 kPa, x1 = 0.2006 | 1.074 mPa·s and 1.083 mPa·s | 0.993 mPa·s and 1.002 mPa·s | 0.925 mPa·s and 0.931 mPa·s | 0.863 mPa·s and 0.869 mPa·s | 0.808 mPa·s and 0.813 mPa·s | 0.759 mPa·s and 0.764 mPa·s | 0.715 mPa·s and 0.72 mPa·s
100 kPa, x1 = 0.3006 | 1.196 mPa·s | 1.105 mPa·s | 1.023 mPa·s | 0.949 mPa·s | 0.885 mPa·s | 0.828 mPa·s | 0.778 mPa·s
100 kPa, x1 = 0.3043 | 1.18 mPa·s | 1.09 mPa·s | 1.013 mPa·s | 0.943 mPa·s | 0.88 mPa·s | 0.825 mPa·s | 0.777 mPa·s
100 kPa, x1 = 0.3995 | 1.297 mPa·s | 1.195 mPa·s | 1.105 mPa·s | 1.027 mPa·s | 0.958 mPa·s | 0.897 mPa·s | 0.841 mPa·s
100 kPa, x1 = 0.4006 | 1.306 mPa·s | 1.203 mPa·s | 1.113 mPa·s | 1.033 mPa·s | 0.964 mPa·s | 0.902 mPa·s | 0.848 mPa·s
100 kPa, x1 = 0.4977 | 1.442 mPa·s | 1.327 mPa·s | 1.226 mPa·s | 1.137 mPa·s | 1.057 mPa·s | 0.988 mPa·s | 0.925 mPa·s
100 kPa, x1 = 0.4997 | 1.45 mPa·s | 1.333 mPa·s | 1.232 mPa·s | 1.142 mPa·s | 1.063 mPa·s | 0.99 mPa·s | 0.927 mPa·s
100 kPa, x1 = 0.5986 | 1.619 mPa·s | 1.486 mPa·s | 1.37 mPa·s | 1.267 mPa·s | 1.176 mPa·s | 1.096 mPa·s | 1.023 mPa·s
100 kPa, x1 = 0.6007 | 1.629 mPa·s | 1.495 mPa·s | 1.378 mPa·s | 1.275 mPa·s | 1.184 mPa·s | 1.103 mPa·s | 1.031 mPa·s
100 kPa, x1 = 0.7 | 1.859 mPa·s | 1.7 mPa·s | 1.562 mPa·s | 1.441 mPa·s | – | 1.238 mPa·s | 1.155 mPa·s
100 kPa, x1 = 0.7001 | 1.849 mPa·s | 1.692 mPa·s | 1.555 mPa·s | 1.435 mPa·s | – | 1.234 mPa·s | 1.15 mPa·s
100 kPa, x1 = 0.7963 | 2.117 mPa·s | 1.938 mPa·s | 1.776 mPa·s | 1.634 mPa·s | 1.51 mPa·s | 1.398 mPa·s | 1.299 mPa·s
100 kPa, x1 = 0.8002 | 2.153 mPa·s | 1.963 mPa·s | 1.798 mPa·s | 1.655 mPa·s | – | 1.413 mPa·s | 1.313 mPa·s
100 kPa, x1 = 0.8994 | 2.512 mPa·s | 2.284 mPa·s | 2.086 mPa·s | 1.914 mPa·s | 1.763 mPa·s | 1.629 mPa·s | 1.511 mPa·s
100 kPa, x1 = 0.8995 | 2.525 mPa·s | 2.294 mPa·s | 2.093 mPa·s | 1.918 mPa·s | 1.765 mPa·s | 1.631 mPa·s | 1.513 mPa·s
101 kPa, x2 = 0.4893 | 1.525 mPa·s | – | – | – | – | – | –
101 kPa, x2 = 0.6905 | 1.245 mPa·s | – | – | – | – | – | –
